Results from PubChem BioAssay AID2060483 (Molecular Pharmacology Branch, DTP, NCI, 2025).

Tested on: K24384-001-R-PDC complex spheroids, viability
Assay: Anticancer human tumor K24384-001-R-PDC patient-derived pancreatic adenocarcinoma cell line growth inhibition [GQUAD]
Settings: for IC50: curve of first compound; for viability, T/C: stronger effect = lower value
Text: DNA G-quadruplex Stabilizer Agents in Combinations in Complex Spheroids
A high-throughput screen of multi-cell type tumor spheroids was designed to identify active combinations of DNA G-quadruplex stabilizer agents and targeted small molecules. Complex spheroids include a stromal component modeled by human endothelial cells (HUVEC) and fibroblasts modeled by human mesenchymal stem cells (MSCs). The concentration ranges selected for each drug and investigational agent were based upon clinically achievable concentrations if the clinical Cmax of the agent was known.
Compounds. The drugs and investigational agents: pidnarulex (CX-5461; NSC782164), APTO-253 (NSC789042), BRACO-19 (NSC847499), peposertib (NSC802822), ceralasertib (NSC780249), elimusertib (NSC800525), camonsertib (NSC841442), AZD-1390 (NSC803789), olaparib (NSC753686), talazoparib (NSC767125), ART-558 (NSC835418), sotorasib (NSC818433), MRTX-1133 (NSC836407), SN-38 (NSC673596), topotecan (NSC609699), etoposide (NSC141540), doxorubicin (NSC123127), gemcitabine (NSC613327), 5-fluorouracil (NSC19893), paclitaxel (NSC125973), vemurafenib (NSC761431), panobinostat (NSC761190), R-306465 (JNJ-16241199; NSC773264), adavosertib (NSC754352), TP-3654 (NSC805149), carboplatin (NSC241240), KSQ-4279 (NSC840948), and staurosporine (NSC755774) were obtained from the National Cancer Institute (NCI) Developmental Therapeutics Program Chemical Repository (34). The FDA-approved anticancer drug set is available from the NCI Developmental Therapeutics Program. […] The stock solutions were prepared in dimethyl sulfoxide (DMSO, Sigma-Aldrich, St. Louis, MO, cat. D2650) at 800-fold the tested concentration and stored at -70 degrees C prior to their use. All drugs and investigational agents were tested over a range starting from a high concentration at or near the clinical Cmax and decreasing in half-log increments. If the clinical Cmax for an agent had not been determined, the highest concentration tested was 10 microM.
2.3 Cell Culture. All cells were maintained in an incubator at 37 degrees C and 5% CO2 with 95% humidity. The PDC lines were cultured according to standard operating procedures established by the NCI PDMR. All PDCs were thawed and cultured in Matrigel-coated flasks prepared with a working solution of 1X Ham's F-12 nutrient mix, without supplementation (Invitrogen, cat. 11765054), 100 U/mL penicillin-streptomycin (Invitrogen, cat. 15140122), and 2.5% Matrigel (Corning Inc., cat. 354248) for the first three passages. The 857933-349-R-J2-PDC line was cultured in 6C/Colon 1B media, which includes advanced DMEM/F-12 (Thermo Fisher Scientific, cat. 12634028), 10 mM HEPES (Thermo Fisher Scientific, cat. 15630080), 1X GlutaMAX supplement (Thermo Fisher Scientific, cat. 35050061), 0.1 mg/mL primocin (InvivoGen, cat. ant-pm-2), 10% defined fetal bovine serum, heat inactivated (HyClone Laboratories Inc., cat. SH30070.03HI), 50% L-WRN conditioned media (ATCC, cat. CRL-3276), 1.25 mM N-Acetyl-L-cysteine (Sigma-Aldrich, cat. A9165), 10 mM nicotinamide (Sigma-Aldrich, cat. N0636), 1X B-27 supplement (Thermo Fisher Scientific, cat. 17504044), 1X N-2 supplement (Thermo Fisher Scientific, cat. 17502048), 10 microM Y-27632 dihydrochloride (Tocris Bioscience, cat. 1254), and 50 ng/mL human EGF recombinant protein (Thermo Fisher Scientific, cat. PHG0311). The 485176-168-R4-J1-PDC line was cultured in Panc media, which includes all 6C/Colon 1B media components plus 100 ng/mL human FGF-10 (Thermo Fisher Scientific, cat. 100-26), 500 nM SB-431542 (Selleckchem, cat. S1067), and gastrin (Tocris, cat. 3006).
[…]
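Also: spheroids exposed to compounds for seven days.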

**Q.** Which results are given for `Nc1ccn(C2OC(CO)C(O)C2(F)F)c(=O)n1` (configuration not stated) + Cc1cnc(CNC(=O)c2c(=O)c3ccc(N4CCCN(C)CC4)nc3n3c2sc2ccccc23)cn1?
**A.** IC50 (second compound 0.0316 µM): 431 nM; IC50 (second compound 0.1 µM): 396 nM; IC50 (second compound 0.316 µM): < 31.6 nM; IC50 (second compound 1 µM): < 31.6 nM; IC50 (second compound 3.16 µM): < 31.6 nM; IC50 (second compound 10 µM): < 31.6 nM; viability, T/C (second compound 0.0316 µM, first compound 0.0316 µM): 68%; viability, T/C (second compound 0.0316 µM, first compound 0.1 µM): 64.8%; viability, T/C (second compound 0.0316 µM, first compound 0.316 µM): 58.6%; viability, T/C (second compound 0.0316 µM, first compound 1 µM): 26.7%; viability, T/C (second compound 0.0316 µM, first compound 3.16 µM): 28.4%; viability, T/C (second compound 0.0316 µM, first compound 10 µM): 22.3%; viability, T/C (second compound 0.1 µM, first compound 0.0316 µM): 52.5%; viability, T/C (second compound 0.1 µM, first compound 0.1 µM): 54%; viability, T/C (second compound 0.1 µM, first compound 0.316 µM): 56.3%; viability, T/C (second compound 0.1 µM, first compound 1 µM): 32.5%; viability, T/C (second compound 0.1 µM, first compound 3.16 µM): 27.2%; viability, T/C (second compound 0.1 µM, first compound 10 µM): 20.9%; viability, T/C (second compound 0.316 µM, first compound 0.0316 µM): 45.8%; viability, T/C (second compound 0.316 µM, first compound 0.1 µM): 45.6%; viability, T/C (second compound 0.316 µM, first compound 0.316 µM): 38.3%; viability, T/C (second compound 0.316 µM, first compound 1 µM): 36.9%; viability, T/C (second compound 0.316 µM, first compound 3.16 µM): 32.2%; viability, T/C (second compound 0.316 µM, first compound 10 µM): 17.6%; viability, T/C (second compound 1 µM, first compound 0.0316 µM): 40.7%; viability, T/C (second compound 1 µM, first compound 0.1 µM): 43.5%; viability, T/C (second compound 1 µM, first compound 0.316 µM): 39.7%; viability, T/C (second compound 1 µM, first compound 1 µM): 41%; viability, T/C (second compound 1 µM, first compound 3.16 µM): 31.8%; viability, T/C (second compound 1 µM, first compound 10 µM): 16.2%; viability, T/C (second compound 3.16 µM, first compound 0.0316 µM): 41.3%; viability, T/C (second compound 3.16 µM, first compound 0.1 µM): 43.1%; viability, T/C (second compound 3.16 µM, first compound 0.316 µM): 32.3%; viability, T/C (second compound 3.16 µM, first compound 1 µM): 36%; viability, T/C (second compound 3.16 µM, first compound 3.16 µM): 33.8%; viability, T/C (second compound 3.16 µM, first compound 10 µM): 12.2%; viability, T/C (second compound 10 µM, first compound 0.0316 µM): 29.4%; viability, T/C (second compound 10 µM, first compound 0.1 µM): 19.3%; viability, T/C (second compound 10 µM, first compound 0.316 µM): 28.6%; viability, T/C (second compound 10 µM, first compound 1 µM): 19.8%; viability, T/C (second compound 10 µM, first compound 3.16 µM): 0.34%; viability, T/C (second compound 10 µM, first compound 10 µM): 0.27%
